Read-outs that look alike come from different tables or passages of the source.

For experiment [1], the target named is α7-nAChR (Homo sapiens, UniProt P36544). As to conditions: read-out: EC50, α7-nAChR (non-CNiFER); potential-sensitive dye, human receptors.
For another experiment, the system named is α7/5-HT3A. As to conditions: cited from earlier work; for EC50: Ca2+ dye (Fluo-3-AM) on HEK293 cells expressing human receptors, read-out: EC50, α7/5-HT3A (non-CNiFER).
The target of experiment [2] is human α7 nicotinic acetylcholine receptors (Homo sapiens, UniProt P36544). In words: cell-based. The class given is cell-based.
Sequence of human α7 nicotinic acetylcholine receptors (P36544 23-502): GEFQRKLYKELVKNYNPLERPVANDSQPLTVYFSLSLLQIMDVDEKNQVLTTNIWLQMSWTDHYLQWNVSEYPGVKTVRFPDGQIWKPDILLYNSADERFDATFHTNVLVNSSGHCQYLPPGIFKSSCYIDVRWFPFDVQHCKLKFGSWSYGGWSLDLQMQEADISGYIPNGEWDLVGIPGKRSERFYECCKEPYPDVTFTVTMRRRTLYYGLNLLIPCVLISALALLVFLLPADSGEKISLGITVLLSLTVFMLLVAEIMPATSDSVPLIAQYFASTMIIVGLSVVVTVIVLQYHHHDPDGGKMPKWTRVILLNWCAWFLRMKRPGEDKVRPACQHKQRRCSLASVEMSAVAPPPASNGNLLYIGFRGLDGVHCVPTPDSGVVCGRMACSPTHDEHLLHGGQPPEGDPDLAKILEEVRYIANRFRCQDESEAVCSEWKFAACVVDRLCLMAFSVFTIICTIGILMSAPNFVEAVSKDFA
Experiment [3] addresses T1, mouse 5-HT3A serotonin receptors (Mus musculus, UniProt P23979).
T1 sequence (P23979 24-489): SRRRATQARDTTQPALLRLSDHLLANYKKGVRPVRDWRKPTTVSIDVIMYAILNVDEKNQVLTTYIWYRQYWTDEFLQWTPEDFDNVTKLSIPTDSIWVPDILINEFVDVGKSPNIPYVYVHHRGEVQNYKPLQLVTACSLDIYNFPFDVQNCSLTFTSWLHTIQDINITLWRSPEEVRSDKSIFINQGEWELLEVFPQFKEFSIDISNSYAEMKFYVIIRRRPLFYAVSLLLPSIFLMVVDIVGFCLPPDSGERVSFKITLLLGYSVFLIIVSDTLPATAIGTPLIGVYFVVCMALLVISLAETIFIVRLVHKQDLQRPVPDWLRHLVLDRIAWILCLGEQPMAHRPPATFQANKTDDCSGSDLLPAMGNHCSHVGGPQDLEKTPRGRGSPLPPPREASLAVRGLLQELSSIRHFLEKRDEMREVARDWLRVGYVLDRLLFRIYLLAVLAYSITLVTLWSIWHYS
The experiment is described as follows: 5-HT3A CNiFER FRET Flex assay. As to conditions: for mode of antagonism / Schild Slope: vs 5-HT; for Schild Slope: in aCSF. The class given is cell-based. As to the method:
Cells were cultured in 10 cm plates with DMEM (Mediatech, Manassas, VA) supplemented with 10% FBS (Gemini Bio-Products, West Sacramento, CA; Atlanta Biologicals, Lawrenceville, GA) and 1% Glutamine (Invitrogen), and incubated at 37°C with 10% CO2. Cells were selected at ∼70% confluency and plated the day before using 100 µl volumes per well into black, transparent flat-bottom, TC treated 96-well plates (Thermo, Waltham, MA; E&K, Greiner Campbell, CA). Plates were removed from the incubator the next day and the media was replaced with 100 µl of artificial cerebral spinal fluid (aCSF) [containing 121 mM NaCl, 2.4 mM Ca^2+, 1.3 mM Mg^2+, 5 mM KCl, 26 mM NaHCO3, 1.2 mM Na2HPO4, 10 mM glucose, 5 mM Hepes Na^+, pH 7.4]. For all assays performed on α7-nAChR CNiFERs 10 µM of the PAM, PNU-120596 (Tocris, Ellisville, MO), was prepared in aCSF. In the case of antagonist measurements, antagonists, at 1.5 times the final desired concentration, were prepared in aCSF. For non-CNiFER cell lines, Blue Membrane Potential dye (Molecular Devices, Sunnyvale, CA) was prepared in aCSF and diluted 2 fold the recommended dilution. Plates were incubated for at least 30 min at 37°C and 10% CO2 for any assay that included antagonist, dye, or PAM modification to the aCSF. Following incubation, plates were removed and placed into the Molecular Devices FlexStation III instrument and run at 37°C. Injection rates varied between […], and 50 µl of the specified agonist prepared at 3x final concentration in the aforementioned aCSF solution was injected after 30 s of baseline measurement. […] All wells were replicated (two or three times) in the same plate. Mean peak FRET ratios calculated from replicates were exported and plotted against agonist concentrations using Graphpad Prism 4 (Carlsbad, CA). A sigmoidal concentration-response (variable slope) regression of the mean peak FRET ratios was fit to generate a concentration-response curve and obtain an EC50 value.
To measure potencies of competitive antagonists, three concentration-response curves with different antagonist concentrations were compared to a control curve (without antagonist). Mean FRET responses generated concentration response curves, and antagonist dependent shifts in EC50 values were used to calculate dose ratios (DR), as a concentration ratio of EC50'/EC50 for the specified agonist (where EC50' is in the presence of the antagonist at the specified concentration). DRs were used to produce a Schild regression plot for analysis of competitive antagonism and generate a Ka value. Analysis consisted of potting Log (DR-1) against –Log [Antagonist]. The Schild Ka value for competitive antagonists was calculated from the x-intercept at y = 0, as the –Log (Ka), [38]. All errors reported are arithmetic standard deviations unless otherwise noted.

The test system of experiment [4] is α7-nAChR. As to conditions: cited from earlier work.

Sequence of α7-nAChR (Homo sapiens, UniProt P36544) (P36544 23-502): as the sequence (P36544 23-502) above

As to `Clc1ccc(C2CC3CCC2N3)cn1` (racemic) [(±)-Epibatidine, (±)-epibatidine], the EC50 was 17 ± 2.6 nM at α7-nAChR [1]; 180 ± 20 nM in the experiment with α7/5-HT3A; 28 nM in experiment [2] (read-out: EC50, α7-nAChR CNiFER); 3.6 nM in experiment [2] (read-out: EC50 of agonist curve).

On to `CN1[C@@H]2CC[C@H]1C[C@@H](OC(=O)c1c[nH]c3ccccc13)C2` [tropisetron], for which the mode of antagonism result in experiment [3] is “greater non-competitive component”.

As for (−)-Nicotine, the EC50 in the experiment on α7/5-HT3A is 19100 nM.

In the case of `Cc1nccn1CC1CCc2c(c3ccccc3n2C)C1=O` (stereo not shown) [Ondansetron, ondansetron], the Kd in experiment [3] (read-out: CNiFER Ka (Schild)) was determined as 1.6 ± 0.9 nM. For the same compound, in experiment [3], the mode of antagonism entry was “near competitive block” and the “Schild Slope” value is on record as −1.3±0.04. Further, the “Schild Slope” value in experiment [3] (listed as ondansetron) was -1.3±0.04.

As for `NCCc1c[nH]c2ccc(O)cc12` [5-HT, 5-Hydroxytryptamine], in experiment [3] (5-HT3A CNiFER concentration-response (Figure 6A)), the Hill coefficient is 2.6.

On to `CCN1C[C@]2(COC(=O)c3ccccc3N3C(=O)C[C@H](C)C3=O)CC[C@H](OC)[C@@]34[C@@H]5C[C@H]6[C@H](OC)[C@@H]5[C@](O)(C[C@@H]6OC)[C@@](O)([C@@H](OC)[C@H]23)[C@@H]14` [MLA, methyllycaconitine], for which the “half time for dissociation” value in the experiment with α7-nAChR [4] is 2.3 min. In the experiment with α7/5-HT3A (read-out: IC50 (non-CNiFER)), the IC50 was 36 ± 13 nM. Further, in experiment [2], the Kd was found to be 3.2 nM, the “Schild Slope” value was −1.2±0.3 and the “mode of antagonism (Schild analysis)” value is “competitively”.

The record behind these values is article PMC3030600, “Characterizing Ligand-Gated Ion Channel Receptors with Genetically Encoded Ca^++ Sensors” (PLoS ONE, 2011).
